PMC6278315, “Microwave-Assisted Expeditious Synthesis of 2-Alkyl-2-(N-arylsulfonylindol-3-yl)-3-N-acyl-5-aryl-1,3,4-oxadiazolines Catalyzed by HgCl2 under Solvent-Free Conditions as Potential Anti-HIV-1 Agents” (Molecules, 2018)
Converted amounts (≈) assume the structure as drawn.

Assays:
[1] = MTT-based cytotoxicity assay; conditions: human, C8166 cells, concentration causing 50% reduction in total C8166 cell number, means of two separate experiments, read-out: CC50 (50% cytotoxic concentration)
Procedure: (§1) Cell line (C8166) and the laboratory-derived virus (HIV-1IIIB) were obtained from MRC, AIDS Reagent Project, London, UK. C8166 was maintainedin RPMI-1640 supplemented with 10% heat-inactivated newborn calf serum (Gibco, Grand Island, NY, USA). The cells used in all experiments were in log-phase growth. The 50% HIV-1IIIB tissue culture infectious dose (TCID50) in C8166 cells was determined and calculated by the Reed and Muench method. Virus stocks were stored in small aliquots at −70 °C.
Cellular toxicity of 2-alkyl-2-(N-arylsulfonylindol-3-yl)-3-N-acyl-5-aryl-1,3,4-oxadiazolines 3s–r′ on C8166 cells was assessed by MTT method as described previously. Briefly, cells were seeded on 96-well microtiter plate in the absence or presence of various concentrations of 2-alkyl-2-(N-arylsulfonylindol-3-yl)-3-N-acyl-5-aryl-1,3,4-oxadiazolines in triplicate and incubated at 37 °C in a humid atmosphere of 5% CO2 for 3 day. The supernatants were discarded and MTT reagent (5 mg/mL in PBS) was added to each wells, then incubated for 4 h, 100 μL of 50% N,N-dimethylformamide (DMF)-20% SDS was added. After the formazan was dissolved completely, the plates were read on a Bio-TekElx800 ELISA reader (BioTek, Winooski, VT, USA) at 595/630 nm. The cytotoxic concentration that caused the reduction of viable C8166 cells by 50% (CC50) was determined from dose–response curve.

HIV-1IIIB = assay: Syncytia assay (anti-HIV-1 activity); assay type: cell-based; conditions: Human immunodeficiency virus 1, 72 h; concentration reducing syncytia formation by 50%; C8166 cells infected with HIV-1IIIB, M.O.I 0.06, 3 days; means of two separate experiments; read-out: EC50 (50% effective concentration)
Procedure: as §1
In the presence of 100 μL various concentrations of 2-alkyl-2-(N-arylsulfonylindol-3-yl)-3-N-acyl-5-aryl-1,3,4-oxadiazolines, C8166 cells (4 × 10^5/mL) were infected with virus HIV-1IIIB at a multiplicity of infection (M.O.I) of 0.06. The final volume per well was 200 μL. Control assays were performed without the testing compounds in HIV-1IIIB infected and uninfected cultures. After 3 days of culture, the cytopathic effect (CPE) was measured by counting the number of syncytia. Percentage inhibition of syncytia formation was calculated and 50% effective concentration (EC50) was calculated. AZT (Sigma-Aldrich, St. Louis, MO, USA) was used as a positive control. Therapeutic index (TI) = CC50/EC50.

melting point	EC50 (HIV-1IIIB)	SMILES	CC50 at 3 day [1]
128 to 130 °C	3.63 µg/mL (≈ 6.99 µM)	CC(=O)N1N=C(c2ccccc2)OC1(C)c1cn(S(=O)(=O)c2ccc(Cl)cc2)c2ccc(C#N)cc12 (stereo not drawn) [3a′, 2-Methyl-2-(N-p-chlorobenzenesulfonyl-5-cyanoindol-3-yl)-3-N-acetyl-5-phenyl-1,3,4-oxadiazolines]	113 µg/mL (≈ 218 µM)
110 to 112 °C	9.54 µg/mL (≈ 18.4 µM)	CC(=O)N1N=C(c2ccccc2)OC1(C)c1cn(S(=O)(=O)c2ccc(C)cc2)c2ccc([N+](=O)[O-])cc12 (stereo not drawn) [3b′, 2-Methyl-2-(N-p-methylbenzenesulfonyl-5-nitroindol-3-yl)-3-N-acetyl-5-phenyl-1,3,4-oxadiazolines]	133 µg/mL (≈ 256 µM)
108 to 110 °C	6.01 µg/mL (≈ 11.2 µM)	CC(=O)N1N=C(c2ccccc2)OC1(C)c1cn(S(=O)(=O)c2ccc(Cl)cc2)c2ccc([N+](=O)[O-])cc12 (stereo not drawn) [3c′, 2-Methyl-2-(N-p-chlorobenzenesulfonyl-5-nitroindol-3-yl)-3-N-acetyl-5-phenyl-1,3,4-oxadiazolines]	53.4 µg/mL (≈ 99.1 µM)
224 to 226 °C	20.3 µg/mL (≈ 42.9 µM)	CCC1(c2cn(S(=O)(=O)c3ccccc3)c3ccccc23)OC(c2ccccc2)=NN1C(C)=O (stereo not drawn) [3d′, 2-Ethyl-2-(N-benzenesulfonylindol-3-yl)-3-N-acetyl-5-phenyl-1,3,4-oxadiazolines]	105 µg/mL (≈ 222 µM)
–	15.5 µg/mL (≈ 33.8 µM)	CC(=O)N1N=C(c2ccccc2)OC1c1cn(S(=O)(=O)c2ccc(C)cc2)c2ccccc12 (stereo not drawn) [3e′]	15.1 µg/mL (≈ 32.8 µM)
–	1.79 µg/mL (≈ 3.65 µM)	CC(=O)N1N=C(c2ccccc2)OC1c1cn(S(=O)(=O)c2cccc([N+](=O)[O-])c2)c2ccccc12 (stereo not drawn) [3f′]	43.5 µg/mL (≈ 88.6 µM)
–	22.5 µg/mL (≈ 47.5 µM)	CC(=O)N1N=C(c2ccccc2)OC1c1cn(S(=O)(=O)c2ccc(C)cc2)c2cc(C)ccc12 (stereo not drawn) [3g′]	80.8 µg/mL (≈ 171 µM)
–	3.53 µg/mL (≈ 6.72 µM)	CC(=O)N1N=C(c2ccccc2)OC1c1cn(S(=O)(=O)c2ccc(Cl)c([N+](=O)[O-])c2)c2ccccc12 (stereo not drawn) [3h′]	4.8 µg/mL (≈ 9.14 µM)
–	0.51 µg/mL (≈ 1.01 µM)	CC(=O)N1N=C(c2ccccc2)OC1c1cn(S(=O)(=O)c2cccc([N+](=O)[O-])c2)c2cc(C)ccc12 (stereo not drawn) [3i′]	20.2 µg/mL (≈ 40 µM)
–	12.4 µg/mL (≈ 23 µM)	CC(=O)N1N=C(c2ccccc2)OC1c1cn(S(=O)(=O)c2ccc(Cl)c([N+](=O)[O-])c2)c2cc(C)ccc12 (stereo not drawn) [3j′]	2.26 µg/mL (≈ 4.19 µM)
–	19.4 µg/mL (≈ 40.4 µM)	CC(=O)N1N=C(c2ccccc2)OC1c1cn(S(=O)(=O)c2ccc(Cl)cc2)c2ccccc12 (stereo not drawn) [3k′]	16.6 µg/mL (≈ 34.5 µM)
–	57.5 µg/mL (≈ 116 µM)	CC(=O)N1N=C(c2ccccc2)OC1c1cn(S(=O)(=O)c2ccc(Cl)cc2)c2cc(C)ccc12 (stereo not drawn) [3l′]	182 µg/mL (≈ 368 µM)
–	22.5 µg/mL (≈ 47.3 µM)	COc1ccc(S(=O)(=O)n2cc(C3OC(c4ccccc4)=NN3C(C)=O)c3ccccc32)cc1 (stereo not drawn) [3m′]	12.3 µg/mL (≈ 25.9 µM)
–	16.6 µg/mL (≈ 33.8 µM)	COc1ccc(S(=O)(=O)n2cc(C3OC(c4ccccc4)=NN3C(C)=O)c3ccc(C)cc32)cc1 (stereo not drawn) [3n′]	11.2 µg/mL (≈ 22.9 µM)
–	18.1 µg/mL (≈ 37.4 µM)	CC(=O)N1N=C(c2ccccc2)OC1c1cn(S(=O)(=O)c2ccc(C)cc2)c2ccc(C#N)cc12 (stereo not drawn) [3o′]	152 µg/mL (≈ 313 µM)
–	63.8 µg/mL (≈ 124 µM)	CC(=O)N1N=C(c2ccccc2)OC1c1cn(S(=O)(=O)c2cccc([N+](=O)[O-])c2)c2ccc(C#N)cc12 (stereo not drawn) [3p′]	135 µg/mL (≈ 262 µM)
–	3 µg/mL (≈ 6.34 µM)	CCC(=O)N1N=C(c2ccccc2)OC1c1cn(S(=O)(=O)c2ccc(C)cc2)c2ccccc12 (stereo not drawn) [3q′]	78 µg/mL (≈ 165 µM)
–	4.01 µg/mL (≈ 8.04 µM)	CCC(=O)N1N=C(c2ccccc2)OC1c1cn(S(=O)(=O)c2ccc(C)cc2)c2ccc(C#N)cc12 (stereo not drawn) [3r′]	98.3 µg/mL (≈ 197 µM)
142 to 144 °C	6.12 µg/mL (≈ 12.9 µM)	CC(=O)N1N=C(c2ccccc2)OC1(C)c1cn(S(=O)(=O)c2ccccc2)c2cc(C)ccc12 (stereo not drawn) [3y, 2-Methyl-2-(N-benzenesulfonyl-6-methylindol-3-yl)-3-N-acetyl-5-phenyl-1,3,4-oxadiazolines]	> 200 µg/mL
208 to 210 °C	17.6 µg/mL (≈ 36.3 µM)	CC(=O)N1N=C(c2ccccc2)OC1(C)c1cn(S(=O)(=O)c2ccccc2)c2ccc(C#N)cc12 (stereo not drawn) [3z, 2-Methyl-2-(N-benzenesulfonyl-5-cyanoindol-3-yl)-3-N-acetyl-5-phenyl-1,3,4-oxadiazolines]	53 µg/mL (≈ 109 µM)
–	0.00199 µg/mL (≈ 0.00745 µM)	Cc1cn([C@H]2C[C@H](N=[N+]=[N-])[C@@H](CO)O2)c(=O)[nH]c1=O [AZT, 3′-azido-3′-deoxythymidine, reference compound]	1370 µg/mL (≈ 5140 µM)
